The compounds below were run against human APJ receptor (Homo sapiens (Human), UniProt P35414) (assay: Intracellular cAMP accumulation assay (APJ hcAMP, HTRF)). Settings: HEK293 cells stably expressing human APJ receptor; inhibition of forskolin-mediated cAMP production; read-out: Human APJ cAMP EC50 Potency range.
Type: cell-based
Method in brief: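 HEK293 cells stably expressing human APJ, 5,000 per well, incubated 30 min at rt with compound, […] and 2 μM forskolin. cAMP measured by HTRF against a cAMP standard curve as inhibition of forskolin-driven production. EC50 from variable-slope sigmoidal fit.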

Sequence of human APJ receptor (P35414 whole entry): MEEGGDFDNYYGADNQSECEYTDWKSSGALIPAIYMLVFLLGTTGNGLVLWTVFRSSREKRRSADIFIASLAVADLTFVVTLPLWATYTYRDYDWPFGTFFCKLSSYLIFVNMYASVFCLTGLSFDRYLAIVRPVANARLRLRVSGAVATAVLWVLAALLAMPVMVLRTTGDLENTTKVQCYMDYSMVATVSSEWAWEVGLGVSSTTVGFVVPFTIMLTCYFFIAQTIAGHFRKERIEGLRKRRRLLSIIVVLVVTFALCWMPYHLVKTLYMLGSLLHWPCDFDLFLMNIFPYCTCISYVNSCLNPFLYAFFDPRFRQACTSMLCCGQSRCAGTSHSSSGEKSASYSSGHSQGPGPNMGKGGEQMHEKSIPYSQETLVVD

| EC50 [nM] | SMILES |
| --- | --- |
| 0.01 to 10 | CCCCc1nc(=O)c(S(=O)(=O)c2ccc(-c3ccncc3C)cc2)c(O)n1[C@@H](CC)c1cc(F)cc(F)c1 [Example 427, 2-butyl-1-[(1S)-1-(3,5-difluorophenyl)propyl]-6-hydroxy-5-[4-(3-methylpyridin-4-yl)benzenesulfonyl]-1,4-dihydropyrimidin-4-one] |
| 0.01 to 10 | CCCCc1nc(=O)c(S(=O)(=O)c2ccc(-c3cccnc3C)cc2)c(O)n1[C@@H](CC)c1ccccc1F [Example 430, 2-butyl-1-[(1S)-1-(2-fluorophenyl)propyl]-6-hydroxy-5-[4-(2-methylpyridin-3-yl)benzenesulfonyl]-1,4-dihydropyrimidin-4-one] |
| 0.01 to 10 | CCCCc1nc(=O)c(S(=O)(=O)c2ccc(-c3ccc(F)nc3C)cc2)c(O)n1[C@@H](CC)c1ccccc1F [Example 431, 2-butyl-5-[4-(6-fluoro-2-methylpyridin-3-yl)benzenesulfonyl]-1-[(1S)-1-(2-fluorophenyl)propyl]-6-hydroxy-1,4-dihydropyrimidin-4-one] |
| 0.01 to 10 | CCCCc1nc(=O)c(S(=O)(=O)c2ccc(-c3ccnc(F)c3C)cc2)c(O)n1[C@@H](CC)c1ccccc1F [Example 432, 2-butyl-5-[4-(2-fluoro-3-methylpyridin-4-yl)benzenesulfonyl]-1-[(1S)-1-(2-fluorophenyl)propyl]-6-hydroxy-1,4-dihydropyrimidin-4-one] |
| 0.01 to 10 | CCCCc1nc(=O)c(S(=O)(=O)c2ccc(-c3ccc(F)nc3C)cc2)c(O)n1[C@@H](CC)c1cc(F)cc(F)c1 [Example 433, 2-butyl-1-[(1S)-1-(3,5-difluorophenyl)propyl]-5-[4-(6-fluoro-2-methylpyridin-3-yl)benzenesulfonyl]-6-hydroxy-1,4-dihydropyrimidin-4-one] |
| 0.01 to 10 | CCOCc1nc(=O)c(S(=O)(=O)c2ccc(-c3ccncc3C)cc2)c(O)n1[C@@H](CC)c1cccc(C#N)c1 [Example 434, 3-[(1S)-1-[2-(ethoxymethyl)-6-hydroxy-5-[4-(3-methylpyridin-4-yl)benzenesulfonyl]-4-oxo-1,4-dihydropyrimidin-1-yl]propyl]benzonitrile] |
| 0.01 to 10 | CCOCc1nc(=O)c(S(=O)(=O)c2ccc(-c3cccnc3C)cc2)c(O)n1[C@@H](CC)c1cccc(C#N)c1 [Example 435, 3-[(1S)-1-[2-(ethoxymethyl)-6-hydroxy-5-[4-(2-methylpyridin-3-yl)benzenesulfonyl]-4-oxo-1,4-dihydropyrimidin-1-yl]propyl]benzonitrile] |
| 0.01 to 10 | CCOCc1nc(=O)c(S(=O)(=O)c2ccc(-c3ccc(F)nc3C)cc2)c(O)n1[C@@H](CC)c1cccc(C#N)c1 [Example 436, 3-[(1S)-1-[2-(ethoxymethyl)-5-[4-(6-fluoro-2-methylpyridin-3-yI)benzenesulfonyl]-6-hydroxy-4-oxo-1,4-dihydropyrimidin-1-yl]propyl]benzonitrile] |
| 0.01 to 10 | CCOCc1nc(=O)c(S(=O)(=O)c2ccc(-c3ccnc(F)c3C)cc2)c(O)n1[C@@H](CC)c1cccc(C#N)c1 [Example 437, 3-[(1S)-1-[2-(ethoxymethyl)-5-[4-(2-fluoro-3-methylpyridin-4-yl)benzenesulfonyl]-6-hydroxy-4-oxo-1,4-dihydropyrimidin-1-yl]propyl]benzonitrile] |
| 0.01 to 10 | CCCCc1nc(=O)c(S(=O)(=O)c2ccc(-c3ccnc(F)c3C)cc2)c(O)n1[C@@H](CC)c1ccc(F)c(C#N)c1 [Example 438, 5-[(1S)-1-{2-butyl-5-[4-(2-fluoro-3-methylpyridin-4-yl)benzenesulfonyl]-6-hydroxy-4-oxo-1,4-dihydropyrimidin-1-yl}propyl]-2-fluorobenzonitrile] |
| 0.01 to 10 | CCCCc1nc(=O)c(S(=O)(=O)c2ccc(-c3cccnc3C)cc2)c(O)n1[C@@H](CC)c1ccc(F)c(C#N)c1 [Example 439, 5-[(1S)-1-{2-butyl-6-hydroxy-5-[4-(2-methylpyridin-3-yl)benzenesulfonyl]-4-oxo-1,4-dihydropyrimidin-1-yl}propyl]-2-fluorobenzonitrile] |
| 0.01 to 10 | CCCCc1nc(=O)c(S(=O)(=O)c2ccc(-c3ccc(F)nc3C)cc2)c(O)n1[C@@H](CC)c1ccc(F)c(C#N)c1 [Example 440, 5-[(1S)-1-{2-butyl-5-[4-(6-fluoro-2-methylpyridin-3-yl)benzenesulfonyl]-6-hydroxy-4-oxo-1,4-dihydropyrimidin-1-yl}propyl]-2-fluorobenzonitrile] |
| 0.01 to 10 | CC[C@@H](c1cccc(C#N)c1)n1c(CC2CC2)nc(=O)c(S(=O)(=O)c2ccc(-c3ccncc3C)cc2)c1O [Example 441, 3-[(1S)-1-[2-(cyclopropylmethyl)-6-hydroxy-5-[4-(3-methylpyridin-4-yl)benzenesulfonyl]-4-oxo-1,4-dihydropyrimidin-1-yl]propyl]benzonitrile] |
| 0.01 to 10 | CC[C@@H](c1cccc(C#N)c1)n1c(CC2CC2)nc(=O)c(S(=O)(=O)c2ccc(-c3ccnc(F)c3C)cc2)c1O [Example 442, 3-[(1S)-1-[2-(cyclopropylmethyl)-5-[4-(2-fluoro-3-methylpyridin-4-yl)benzenesulfonyl]-6-hydroxy-4-oxo-1,4-dihydropyrimidin-1-yl]propyl]benzonitrile] |
| 0.01 to 10 | CC[C@@H](c1cccc(C#N)c1)n1c(CC2CC2)nc(=O)c(S(=O)(=O)c2ccc(-c3cccnc3C)cc2)c1O [Example 443, 3-[(1S)-1-[2-(cyclopropylmethyl)-6-hydroxy-5-[4-(2-methylpyridin-3-yl)benzenesulfonyl]-4-oxo-1,4-dihydropyrimidin-1-yl]propyl]benzonitrile] |
| 0.01 to 10 | CC[C@@H](c1cccc(C#N)c1)n1c(CC2CC2)nc(=O)c(S(=O)(=O)c2ccc(-c3ccc(F)nc3C)cc2)c1O [Example 444, 3-[(1S)-1-[2-(cyclopropylmethyl)-5-[4-(6-fluoro-2-methylpyridin-3-yl)benzenesulfonyl]-6-hydroxy-4-oxo-1,4-dihydropyrimidin-1-yl]propyl]benzonitrile] |
| 0.01 to 10 | CCOCc1nc(=O)c(S(=O)(=O)c2ccc(-c3cccnc3C)cc2)c(O)n1[C@@H](CC)c1cccc(C#N)c1 [Example 445, 3-[(1S)-1-[2-(ethoxymethyl)-6-hydroxy-5-[4-(2-methylpyridin-3-yl)benzenesulfonyl]-4-oxo-1,4-dihydropyrimidin-1-yl]propyl]benzonitrile] |
| 0.01 to 10 | CCCCc1nc(=O)c(S(=O)(=O)c2ccc(-c3ccnc(F)c3C)cc2)c(O)n1[C@@H](CC)c1cc(F)cc(F)c1 [Example 446, 2-butyl-1-[(1S)-1-(3,5-difluorophenyl)propyl]-5-[4-(2-fluoro-3-methylpyridin-4-yl)benzenesulfonyl]-6-hydroxy-1,4-dihydropyrimidin-4-one] |
| 0.01 to 10 | CCCCc1nc(=O)c(S(=O)(=O)c2ccc(-c3ccncc3C)cc2)c(O)n1[C@H](c1cccc(C#N)c1)C(C)C [Example 447, 3-[(1S)-1-{2-butyl-6-hydroxy-5-[4-(3-methylpyridin-4-yl)benzenesulfonyl]-4-oxo-1,4-dihydropyrimidin-1-yl}-2-methylpropyl]benzonitrile] |
| 0.01 to 10 | CCCCc1nc(=O)c(S(=O)(=O)c2ccc(-c3cccnc3C)cc2)c(O)n1[C@H](c1cccc(C#N)c1)C(C)C [Example 448, 3-[(1S)-1-{2-butyl-6-hydroxy-5-[4-(2-methylpyridin-3-yl)benzenesulfonyl]-4-oxo-1,4-dihydropyrimidin-1-yl}-2-methylpropyl]benzonitrile] |
| 0.01 to 10 | CCCCc1nc(=O)c(S(=O)(=O)c2ccc(-c3cccnc3C)cc2)c(O)n1[C@@H](CC)c1cc(F)cc(C#N)c1 [Example 449, 3-[(1S)-1-{2-butyl-6-hydroxy-5-[4-(2-methylpyridin-3-yl)benzenesulfonyl]-4-oxo-1,4-dihydropyrimidin-1-yl}propyl]-5-fluorobenzonitrile] |
| 0.01 to 10 | CCCCc1nc(=O)c(S(=O)(=O)c2ccc(-c3ccncc3C)cc2)c(O)n1[C@@H](CC)c1cc(F)cc(C#N)c1 [Example 450, 3-[(1S)-1-{2-butyl-6-hydroxy-5-[4-(3-methylpyridin-4-yl)benzenesulfonyl]-4-oxo-1,4-dihydropyrimidin-1-yl}propyl]-5-fluorobenzonitrile] |
| 0.01 to 10 | CCCCc1nc(=O)c(S(=O)(=O)c2ccc(-c3ccnc(F)c3C)cc2)c(O)n1[C@H](c1cccc(C#N)c1)C(C)C [Example 451, 3-[(1S)-1-{2-butyl-5-[4-(2-fluoro-3-methylpyridin-4-yl)benzenesulfonyl]-6-hydroxy-4-oxo-1,4-dihydropyrimidin-1-yl}-2-methylpropyl]benzonitrile] |
| 0.01 to 10 | CCCCc1nc(=O)c(S(=O)(=O)c2ccc(-c3ccc(F)nc3C)cc2)c(O)n1[C@H](c1cccc(C#N)c1)C(C)C [Example 452, 3-[(1S)-1-{2-butyl-5-[4-(6-fluoro-2-methylpyridin-3-yl)benzenesulfonyl]-6-hydroxy-4-oxo-1,4-dihydropyrimidin-1-yl}-2-methylpropyl]benzonitriIe] |
| 0.01 to 10 | CCCCc1nc(=O)c(S(=O)(=O)c2ccc(-c3ccc(F)nc3C)cc2)c(O)n1[C@@H](CC)c1cc(F)cc(C#N)c1 [Example 453, 3-[(1S)-1-{2-butyl-5-[4-(6-fluoro-2-methylpyridin-3-yl)benzenesulfonyl]-6-hydroxy-4-oxo-1,4-dihydropyrimidin-1-yl}propyl]-5-fluorobenzonitrile] |
| 0.01 to 10 | CCCCc1nc(=O)c(S(=O)(=O)c2ccc(-c3ccc(F)nc3C)cn2)c(O)n1[C@@H](CC)c1cccc(C#N)c1 [Example 454, 3-[(1S)-1-[2-butyl-5-({6′-fluoro-2′-methyl-[3,3′-bipyridine]-6-yl}sulfonyl)-6-hydroxy-4-oxo-1,4-dihydropyrimidin-1-yl]propyl]benzonitrile] |
| 0.01 to 10 | CCCCc1nc(=O)c(S(=O)(=O)c2ccc(-c3cccnc3C)cn2)c(O)n1[C@@H](CC)c1cccc(C#N)c1 [Example 455, 3-[(1S)-1-[2-butyl-6-hydroxy-5-({2′-methyl-[3,3′-bipyridine]-6-yl}sulfonyl)-4-oxo-1,4-dihydropyrimidin-1-yl]propyl]benzonitrile] |
